# Assay results reported in patent US11518981B2, “Methods of enhancing engraftment activity of hematopoietic stem cells” (CHILDREN'S HOSPITAL MEDICAL CENTER, priority 2017, dated 2022).
# Assays:
# Type in all cases: in vivo
# [1] = tested on: human MPB derived CD34^+ cells; experiment: multi-lineage reconstitution (myeloid / B-lymphoid) in bone marrow of NSG mice
# Text: NOD.Cg-Prkdcscid Il2rgtm1Wjl/SzJ (NSG) mice were purchased from The Jackson Laboratory (Bar Harbor, Me.). All animals were bred and maintained in a specific pathogen-free environment and all experiments were approved by the Institutional Animal Care and Use (IACUC) Committee. Male and female NSG mice aged 8 to 14 weeks old were fed doxycycline chow (TestDiet; Modified Prolab RMH-1500 with 0.0625% doxycycline) a week prior to, during and for 2 weeks post irradiation. Human engraftment was analyzed in bone marrow (BM), via BM aspirates performed at 6 and 12 weeks from left and right femurs. After sacrifice at 24 weeks, marrow from all of the primary mice (1 T) was harvested. Peripheral blood analysis was also performed in some experiments. Secondary transplants (2 T) were performed after mouse CD45^+ cells were depleted from BM harvested from each 1 T mouse separately, using Biotin Rat Anti-Mouse CD45 (BD Biosciences 553078) and Streptavidin Particles Plus-DM (BD Biosciences 557812) and injected into one irradiated (280 cGy) secondary NSG mouse. For calculating competitive repopulating units (CRU) from limiting dilution transplantation, the L-CALC^TM software (Stem Cell Technologies) was used. All of the mice used for this study were randomly assigned to a treatment group. No animals were excluded from the analysis. PE-Cyanine 7 or APC-EFLUOR® 780, APC- or PE-conjugated antibodies directed to human CD34 (BD Biosciences 560710 or 555824), CD38 (eBiosciences, San Diego, Calif. 47-0389-42), CD90 (BioLegend 328120), CD45RA (eBiosciences 17-0458-42), CD49f (BD Biosciences 555736), CD45 (BD 55485 or Biolegend 304026), CD33 (eBiosciences 25-0338-42), CD19 (BD Biosciences 557791), or CD3 (BD Biosciences 555340). Cells ( 5×10^5-1×10^6) were used to label with antibodies as per manufacturer instructions with the appropriate isotype controls. For phospho-flow, primary antibodies phospho-[…]), phospho-p44/42 MAPK (ERK 1⁄2) […]; […]), and phospho-JNK […] PE conjugate; […]) (all from Cell Signaling) were used for staining overnight followed by wash and secondary antibody stain including Goat anti-Rabbit IgG (H+L) or Goat anti-Rabbit IgG (H+L) or Pacific Blue (P-10994) antibody. Apoptosis assay was performed using PE Annexin V Apoptosis Detection Kit (BD Biosciences 559763) according to the manufacturer's instructions. Total ROS and mitochondrial specific ROS were detected using 10 μM CM-H2DCFDA (ThermoFisher Scientific C6827) and 5 μM MITOSOXTM Red (Red Mitochondrial Superoxide Indicator) (ThermoFisher Scientific M36008) respectively, following manufacturer's instructions.
# [2] = tested on: human MPB derived CD34^+ cells; experiment: human CD45^+ engraftment in bone marrow of NSG mice after primary transplant (1 T); conditions: 24 weeks post 1 T; 72-96 h LV and RV groups
# Procedure: Freshly isolated CD34^+ cells were used, wherever possible, and especially for 0 h controls. In some experiments cryopreserved CD34^+ cells were thawed for 4 hrs in IMDM containing cytokines, then washed and used for experiments. […] Cells were kept in culture for a total of either 18-24 hours, 36-42 hours or 72-96 hours. For RV transduction, human CD34^+ cells were pre-stimulated for 2 days (42-48 hours) hours at a cell density of 3×10^5 cells/ml. Retronectin coated tissue culture flasks or plates were preloaded at room temperature with GALV pseudotyped RV twice for one hour each. The vector supernatant was removed and the cells were loaded into the RV loaded retronectin coated flasks. RV transduction was also performed twice 24 hours apart at an MOI ranging from 5 to 10. After total of 72-96 hours in culture, cells were harvested. LV and RV transductions were performed at 37° C. under 5% CO2 in ambient oxygen concentrations (20% 02). For some experiments, LV was added just like RV after 2 days of pre-stimulation. p38 MAPK inhibitors Birb 796 (600 nM), Vx-745 (1 μM), or LY 2228820 (500 nM) (all from Selleckchem) were supplemented to the culture media. […] Human engraftment was analyzed in bone marrow (BM), via BM aspirates performed at 6 and 12 weeks from left and right femurs. […]
# human CD34^+ cells = experiment: GFP marking in human grafts of NSG mice; conditions: limiting dilution transplant; also long-termed secondary human grafts
# Text: NOD.Cg-Prkdcscid Il2rgtm1Wjl/SzJ (NSG) mice were purchased from The Jackson Laboratory (Bar Harbor, Me.). All animals were bred and maintained in a specific pathogen-free environment and all experiments were approved by the Institutional Animal Care and Use (IACUC) Committee. Male and female NSG mice aged 8 to 14 weeks old were fed doxycycline chow (TestDiet; Modified Prolab RMH-1500 with 0.0625% doxycycline) a week prior to, during and for 2 weeks post irradiation. Human engraftment was analyzed in bone marrow (BM), via BM aspirates performed at 6 and 12 weeks from left and right femurs. After sacrifice at 24 weeks, marrow from all of the primary mice (1 T) was harvested. Peripheral blood analysis was also performed in some experiments. Secondary transplants (2 T) were performed after mouse CD45^+ cells were depleted from BM harvested from each 1 T mouse separately, using Biotin Rat Anti-Mouse CD45 (BD Biosciences 553078) and Streptavidin Particles Plus-DM (BD Biosciences 557812) and injected into one irradiated (280 cGy) secondary NSG mouse. […] Total ROS and mitochondrial specific ROS were detected using 10 μM CM-H2DCFDA (ThermoFisher Scientific C6827) and 5 μM MITOSOXTM Red (Red Mitochondrial Superoxide Indicator) (ThermoFisher Scientific M36008) respectively, following manufacturer's instructions.
compound,measurement,setting,value
"Cc1ccc(-n2nc(C(C)(C)C)cc2NC(=O)Nc2ccc(OCCN3CCOCC3)c3ccccc23)cc1 [p38i, 1-[5-tert-butyl-2-(4-methylphenyl)pyrazol-3-yl]-3-[4-(2-morpholin-4-ylethoxy)naphthalen-1-yl]urea]",myeloid skewing of the transduced progeny,"[1]; 24 week 1 T, cycling HSCs transduced (RV group)","somewhat reduced, but still quite significant"
same,multi-potentiality of the graft,"[1]; 24 week 1 T, gene transfer in first 24 h (non-cycling HSCs), culture up to 96 h",restored the multi-potentiality of the graft at 24 week (1 T) to levels similar to 0 h controls
same,lineage balance in transduced HSCs progeny,"[1]; limiting dilution transplant, 42 h LV, 6 mo post 1 T",had less effect
same,lineage balance in untransduced progeny,"[1]; limiting dilution transplant, 42 h LV, 6 mo post 1 T, higher HSPC dosage",sufficient to restore lineage balance
same,human CD45^+ cell engraftment in the NSG BM,[2],improved
same,GFP marking,human CD34^+ cells,did not have any effect
